Assay results from ChEMBL document CHEMBL4130375, “Design, synthesis and biological evaluation of 4-amidobenzimidazole acridine derivatives as dual PARP and Topo inhibitors for cancer therapy” (Eur J Med Chem, 2017).
pIC50: −log10 of the molar value. Calls of active or inactive are those of the source. No cut-off for these calls is given here.

Legend:
MCF7 [1] = assay: Cell cycle arrest in human MCF7 cells assessed as accumulation at G2/M phase at 1 uM after 24 hrs by propidium iodide staining based flow cytometry (reference value: 22.61 +/- 1.55%); format: functional
MCF7 [2] = assay: Downregulation of CDK6 protein expression in human MCF7 cells up to 10 uM after 24 hrs by Western blot method; format: functional, cell-based
MCF7 [3] = assay: Induction of apoptosis in human MCF7 cells assessed as necrotic cells at 10 uM after 48 hrs by Annexin V-FITC/propidium iodide staining based flow cytometry (reference value: 0%); format: functional
MCF7 [4] = assay: Upregulation of cleaved caspase-9 protein expression in human MCF7 cells after 24 hrs by Western blot method; format: functional, cell-based
HCT-116 = assay: Potency index, ratio of m-AMSA IC50 to compound IC50 for human HCT116 cells expressing topoisomerase-1; format: functional
[5] = target: T1, DNA topoisomerase 1 (Homo sapiens) (UniProt P11387); assay: Inhibition of human topoisomerase-1 at 2 to 100 uM using supercoiled pBR322 DNA as substrate after 10 to 15 mins by ethidium bromide staining based electrophoresis method
T1 sequence (whole entry): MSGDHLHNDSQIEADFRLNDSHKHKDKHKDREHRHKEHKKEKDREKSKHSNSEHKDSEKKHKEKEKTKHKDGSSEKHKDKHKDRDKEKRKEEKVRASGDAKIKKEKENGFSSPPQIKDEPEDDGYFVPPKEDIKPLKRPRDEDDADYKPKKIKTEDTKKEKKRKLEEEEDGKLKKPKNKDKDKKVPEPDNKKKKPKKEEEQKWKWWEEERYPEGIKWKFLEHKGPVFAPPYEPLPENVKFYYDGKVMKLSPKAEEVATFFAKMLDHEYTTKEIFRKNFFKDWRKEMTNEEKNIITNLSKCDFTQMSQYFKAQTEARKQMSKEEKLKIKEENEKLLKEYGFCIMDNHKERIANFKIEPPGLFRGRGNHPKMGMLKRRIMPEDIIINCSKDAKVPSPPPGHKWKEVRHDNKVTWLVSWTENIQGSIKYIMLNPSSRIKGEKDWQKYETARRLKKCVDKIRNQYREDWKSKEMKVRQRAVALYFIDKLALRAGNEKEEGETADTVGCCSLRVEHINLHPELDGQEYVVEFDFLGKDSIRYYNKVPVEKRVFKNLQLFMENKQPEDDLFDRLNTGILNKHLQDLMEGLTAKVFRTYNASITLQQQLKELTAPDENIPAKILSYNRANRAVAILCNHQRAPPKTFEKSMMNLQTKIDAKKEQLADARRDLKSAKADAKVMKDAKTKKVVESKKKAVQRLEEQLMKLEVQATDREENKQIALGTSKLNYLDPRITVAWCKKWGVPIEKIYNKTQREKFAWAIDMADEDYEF

MCF7 [6] = assay: Induction of DNA double strand breaks in human MCF7 cells assessed as increase in gammaH2AX level after 24 hrs by Western blot analysis; format: functional, cell-based
MCF7 [7] = assay: Cell cycle arrest in human MCF7 cells assessed as accumulation at S phase at 5 uM after 24 hrs by propidium iodide staining based flow cytometry (reference value: 59.72 +/- 2.98%); format: functional
MCF7 [8] = assay: Upregulation of cleaved caspase-8 protein expression in human MCF7 cells after 24 hrs by Western blot method; format: functional, cell-based
[9] = target: T1, DNA topoisomerase 1 (Homo sapiens); assay: Inhibition of topoisomerase-1 in human MCF7 cells assessed as enzyme-DNA cleavage complex formation by measuring decrease in topoisomerase-1 protein expression after 24 hrs by Western blot analysis; format: cell-based
[10] = Intrinsic clearance in mouse liver microsomes at 1.11 uM preincubated for 5 mins followed by NADPH addition by LC-MS/MS analysis; format: ADME, microsome; conditions: read-out: CLH
MCF7 [11] = assay: Potency index, ratio of m-AMSA IC50 to compound IC50 for human MCF7 cells; format: functional
MCF7 [12] = assay: Induction of apoptosis in human MCF7 cells assessed as necrotic cells at 5 uM after 48 hrs by Annexin V-FITC/propidium iodide staining based flow cytometry (reference value: 0%); format: functional
MCF7 [13] = assay: Antitumor activity against human MCF7 cells xenografted in mouse assessed as tumor growth inhibition at 20 to 40 mg/kg/day, ip measured on day 30 post initial treatment; format: functional, organism-based
HCC1937 [14] = assay: Potency index, ratio of olaparib IC50 to compound IC50 for human HCC1937 cells harboring BRCA1 mutant; format: functional
MCF7 [15] = assay: Upregulation of p18 protein expression in human MCF7 cells after 24 hrs by Western blot method; format: functional, cell-based
MCF7 [16] = assay: Downregulation of CyclinD protein expression in human MCF7 cells up to 10 uM after 24 hrs by Western blot method; format: functional, cell-based
[17] = target: DNA topoisomerase 2-alpha (Homo sapiens) (UniProt P11388); assay: Inhibition of human topoisomerase-2 at 100 uM using supercoiled pBR322 DNA as substrate after 10 to 15 mins by ethidium bromide staining based electrophoresis method
MCF7 [18] = assay: Cell cycle arrest in human MCF7 cells assessed as accumulation at S phase at 10 uM after 24 hrs by propidium iodide staining based flow cytometry (reference value: 59.72 +/- 2.98%); format: functional
HCC1937 [19] = assay: Potency index, ratio of m-AMSA IC50 to compound IC50 for human HCC1937 cells harboring BRCA1 mutant; format: functional
MCF7 [20] = assay: Induction of apoptosis in human MCF7 cells assessed as early apoptotic cells at 1 uM after 48 hrs by Annexin V-FITC/propidium iodide staining based flow cytometry (reference value: 0.108%); format: functional
MCF7 [21] = assay: Induction of apoptosis in human MCF7 cells assessed as late apoptotic cells at 5 uM after 48 hrs by Annexin V-FITC/propidium iodide staining based flow cytometry (reference value: 0%); format: functional
Cytochrome P450 2D6 = Cytochrome P450 2D6 (Homo sapiens, UniProt P10635); assay: Inhibition of CYP2D6 in human liver microsomes preincubated for 10 mins followed by NADPH/substrate addition measured after 20 mins by LC-MS/MS analysis
MCF7 [22] = assay: Induction of apoptosis in human MCF7 cells assessed as necrotic cells at 1 uM after 48 hrs by Annexin V-FITC/propidium iodide staining based flow cytometry (reference value: 0%); format: functional
[23] = target: Poly [ADP-ribose] polymerase 1 (Homo sapiens, UniProt P09874); assay: Inhibition of PARP1 (unknown origin) assessed as reduction in biotinylated poly(ADP-ribose) incorporation on to histone protein by ELISA based colorimetric assay
MCF7 [24] = assay: Cell cycle arrest in human MCF7 cells assessed as accumulation at G0/G1 phase at 5 uM after 24 hrs by propidium iodide staining based flow cytometry (reference value: 17.67 +/- 1.25%); format: functional
MCF7 [25] = assay: Cell cycle arrest in human MCF7 cells assessed as accumulation at G0/G1 phase at 1 uM after 24 hrs by propidium iodide staining based flow cytometry (reference value: 17.67 +/- 1.25%); format: functional
[26] = Half life in mouse liver microsomes at 1.11 uM preincubated for 5 mins followed by NADPH addition by LC-MS/MS analysis; format: ADME, microsome
[27] = target: DNA topoisomerase 2-alpha (Homo sapiens) (UniProt P11388); assay: Poison activity at topoisomerase-2 in human MCF7 cells assessed as enzyme-DNA complex formation by measuring decrease in topoisomerase-2 protein expression after 24 hrs by Western blot analysis; format: cell-based

Sequence of DNA topoisomerase 2-alpha (Homo sapiens) (P11388 whole entry): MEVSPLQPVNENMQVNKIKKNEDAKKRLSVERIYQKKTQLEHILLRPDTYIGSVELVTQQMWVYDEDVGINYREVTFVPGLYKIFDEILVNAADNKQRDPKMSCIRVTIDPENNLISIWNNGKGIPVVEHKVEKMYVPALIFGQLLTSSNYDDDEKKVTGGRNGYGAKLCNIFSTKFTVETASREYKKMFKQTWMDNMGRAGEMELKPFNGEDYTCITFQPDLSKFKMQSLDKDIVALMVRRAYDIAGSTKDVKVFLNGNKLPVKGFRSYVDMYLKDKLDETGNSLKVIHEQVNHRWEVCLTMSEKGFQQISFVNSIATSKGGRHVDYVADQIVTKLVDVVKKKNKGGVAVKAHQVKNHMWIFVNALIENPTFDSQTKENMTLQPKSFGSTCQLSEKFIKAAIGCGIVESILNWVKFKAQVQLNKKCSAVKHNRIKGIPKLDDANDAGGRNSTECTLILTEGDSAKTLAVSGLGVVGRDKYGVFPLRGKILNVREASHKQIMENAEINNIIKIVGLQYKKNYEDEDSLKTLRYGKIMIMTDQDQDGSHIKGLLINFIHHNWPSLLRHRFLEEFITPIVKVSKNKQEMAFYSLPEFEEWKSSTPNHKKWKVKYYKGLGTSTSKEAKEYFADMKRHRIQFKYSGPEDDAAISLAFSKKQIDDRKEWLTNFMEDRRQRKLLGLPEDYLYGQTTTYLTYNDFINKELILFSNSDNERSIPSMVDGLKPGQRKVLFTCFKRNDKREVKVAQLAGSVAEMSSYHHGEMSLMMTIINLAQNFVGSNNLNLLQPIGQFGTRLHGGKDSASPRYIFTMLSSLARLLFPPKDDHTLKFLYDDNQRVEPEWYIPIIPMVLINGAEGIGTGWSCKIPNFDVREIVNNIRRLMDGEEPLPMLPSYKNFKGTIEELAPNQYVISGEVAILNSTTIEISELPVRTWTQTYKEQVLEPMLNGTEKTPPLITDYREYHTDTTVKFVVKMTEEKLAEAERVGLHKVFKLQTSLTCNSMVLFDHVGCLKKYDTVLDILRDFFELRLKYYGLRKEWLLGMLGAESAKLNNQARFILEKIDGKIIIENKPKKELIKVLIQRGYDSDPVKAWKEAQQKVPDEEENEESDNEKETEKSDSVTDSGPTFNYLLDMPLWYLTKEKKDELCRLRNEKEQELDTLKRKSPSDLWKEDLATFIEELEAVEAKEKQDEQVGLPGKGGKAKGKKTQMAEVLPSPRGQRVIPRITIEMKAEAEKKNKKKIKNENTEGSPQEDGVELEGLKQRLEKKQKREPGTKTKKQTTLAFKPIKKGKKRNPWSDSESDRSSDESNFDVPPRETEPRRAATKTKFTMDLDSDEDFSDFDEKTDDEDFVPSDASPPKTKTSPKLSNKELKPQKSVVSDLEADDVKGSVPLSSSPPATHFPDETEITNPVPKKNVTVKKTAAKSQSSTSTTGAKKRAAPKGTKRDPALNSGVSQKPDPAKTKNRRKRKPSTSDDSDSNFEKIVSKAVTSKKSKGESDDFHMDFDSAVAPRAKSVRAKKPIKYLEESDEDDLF
Sequence of Poly [ADP-ribose] polymerase 1 (P09874 whole entry): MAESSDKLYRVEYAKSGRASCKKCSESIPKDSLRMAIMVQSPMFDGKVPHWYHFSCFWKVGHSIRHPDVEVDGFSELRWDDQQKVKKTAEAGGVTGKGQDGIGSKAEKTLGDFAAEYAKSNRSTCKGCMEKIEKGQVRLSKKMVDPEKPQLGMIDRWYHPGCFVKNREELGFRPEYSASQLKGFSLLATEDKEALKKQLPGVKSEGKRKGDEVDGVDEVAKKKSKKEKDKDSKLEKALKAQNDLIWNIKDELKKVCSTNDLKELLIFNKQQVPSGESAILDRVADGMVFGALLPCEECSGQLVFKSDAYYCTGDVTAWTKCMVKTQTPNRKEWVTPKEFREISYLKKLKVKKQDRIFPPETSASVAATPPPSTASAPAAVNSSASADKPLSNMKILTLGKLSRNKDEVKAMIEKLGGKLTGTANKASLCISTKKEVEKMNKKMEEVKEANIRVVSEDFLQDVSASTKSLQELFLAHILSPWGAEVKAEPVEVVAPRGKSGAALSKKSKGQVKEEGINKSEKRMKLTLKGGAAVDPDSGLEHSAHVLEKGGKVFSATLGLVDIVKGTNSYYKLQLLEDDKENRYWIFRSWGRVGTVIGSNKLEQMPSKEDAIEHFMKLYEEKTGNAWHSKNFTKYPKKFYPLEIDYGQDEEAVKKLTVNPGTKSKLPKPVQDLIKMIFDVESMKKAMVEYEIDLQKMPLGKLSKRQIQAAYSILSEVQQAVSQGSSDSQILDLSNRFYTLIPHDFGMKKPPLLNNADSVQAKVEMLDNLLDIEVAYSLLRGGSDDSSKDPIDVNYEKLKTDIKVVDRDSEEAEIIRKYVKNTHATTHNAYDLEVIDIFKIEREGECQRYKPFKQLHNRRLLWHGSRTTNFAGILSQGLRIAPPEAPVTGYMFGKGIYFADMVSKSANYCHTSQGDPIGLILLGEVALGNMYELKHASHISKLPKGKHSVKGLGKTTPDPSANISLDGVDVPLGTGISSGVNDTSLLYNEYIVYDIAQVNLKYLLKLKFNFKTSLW
Sequence of Cytochrome P450 2D6 (P10635 whole entry): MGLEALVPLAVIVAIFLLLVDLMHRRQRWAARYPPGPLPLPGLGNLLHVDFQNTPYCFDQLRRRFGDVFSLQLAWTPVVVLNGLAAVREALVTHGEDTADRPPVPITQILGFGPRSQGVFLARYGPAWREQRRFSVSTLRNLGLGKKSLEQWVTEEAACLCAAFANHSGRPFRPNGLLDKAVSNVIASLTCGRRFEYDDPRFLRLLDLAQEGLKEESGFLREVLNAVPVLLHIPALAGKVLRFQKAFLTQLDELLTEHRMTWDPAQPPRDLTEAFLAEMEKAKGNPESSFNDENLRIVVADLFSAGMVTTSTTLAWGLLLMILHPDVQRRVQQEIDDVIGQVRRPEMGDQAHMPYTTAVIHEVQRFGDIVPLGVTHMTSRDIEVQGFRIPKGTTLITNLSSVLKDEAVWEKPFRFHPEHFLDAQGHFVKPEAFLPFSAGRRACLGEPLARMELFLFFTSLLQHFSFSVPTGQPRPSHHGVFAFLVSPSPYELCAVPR

Cc1cccc2c(Nc3cccc(-c4nc5c(C(N)=O)cccc5[nH]4)c3)c3ccccc3nc12
Activity (MCF7 [1]): 21.76% | Activity (MCF7 [2]): Active | Activity (MCF7 [3]): 0.327% | Activity (MCF7 [4]): Dose-dependent effect | Ratio IC50 (HCT-116): 2.7 | inhibition [5]: Active | Activity (MCF7 [6]): Dose-dependent effect | Activity (MCF7 [7]): 42.32% | Activity (MCF7 [8]): Dose-dependent effect | inhibition [9]: Dose-dependent effect | microsomal CLint at 1.11 µM [10]: 11.4 µL/min/mg | Ratio IC50 (MCF7 [11]): 4 | Activity (MCF7 [12]): 0.641% | TGI (MCF7 [13]): Active | Ratio IC50 (HCC1937 [14]): 6 | Activity (MCF7 [15]): Dose-dependent effect | Activity (MCF7 [16]): Active | inhibition [17]: Active | Activity (MCF7 [18]): 30.87% | Ratio IC50 (HCC1937 [19]): 9.5 | Activity (MCF7 [20]): 34.4% | Activity (MCF7 [21]): 36.4% | pIC50 (Cytochrome P450 2D6): < 5.00 | Activity (MCF7 [22]): 0.531% | pIC50 [23]: 6.35 | Activity (MCF7 [24]): 43.62% | Activity (MCF7 [25]): 19.96% | half-life at 1.11 µM [26]: 1.44 h | Activity [27]: Dose-dependent effect
